Results from ChEMBL document CHEMBL5113390, “Design, synthesis and antitumor evaluation of novel 1H-indole-2-carboxylic acid derivatives targeting 14-3-3η protein” (Eur J Med Chem, 2022).
The source made the active and inactive calls. No cut-off for these calls is given here.

Legend:
Bel-7402 = test: Antiproliferative activity against human Bel-7402 cells assessed as reduction in cell viability incubated for 72 hrs by MTT assay; type: functional, cell-based; details: Bel-7402, 72 h
Hep 3B2 [1] = test: Induction of apoptosis in human Hep3B cells assessed as viable cells at 2.5 uM measured after 48 hrs by Annexin V/FITC-PI staining based flow cytometry assay (reference value: 90.09%); type: functional; details: read-out: Activity
hERG [2] = test: Selectivity ratio of IC50 for inhibition of hERG by automated patch clamp analysis to IC50 for antiproliferative activity against human HepG2 cells assessed as reduction in cell viability incubated for 72 hrs by MTT assay; type: toxicity, cell-based; details: read-out: Ratio IC50
Hep 3B2 [3] = test: Induction of apoptosis in human Hep3B cells assessed as late apoptotic cells at 5 uM measured after 48 hrs by Annexin V/FITC-PI staining based flow cytometry assay (reference value: 3.14%); type: functional
[4] = molecular target: T1, 14-3-3 protein eta (Homo sapiens) (UniProt Q04917); test: Inhibition of 14-3-3 eta in human Hep3B cells assessed as reduction in AKT phosphorylation at T308 residue measured after 24 hrs by western blot analysis; type: cell-based; details: dose 0.5-5 µM, DDE = dose-dependent effect
T1 sequence (whole entry): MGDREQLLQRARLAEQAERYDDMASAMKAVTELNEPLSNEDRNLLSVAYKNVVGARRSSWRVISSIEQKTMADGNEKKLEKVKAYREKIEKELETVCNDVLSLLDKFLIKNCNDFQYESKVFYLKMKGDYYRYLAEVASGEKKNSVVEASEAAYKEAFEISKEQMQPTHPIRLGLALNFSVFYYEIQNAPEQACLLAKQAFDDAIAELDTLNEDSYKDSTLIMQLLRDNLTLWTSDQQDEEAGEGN

Hep 3B2 [5] = test: Induction of apoptosis in human Hep3B cells assessed as upregulation of cleaved PARP expression at 5 to 20 uM measured after 48 hrs by Western blot analysis; type: functional, cell-based; details: dose 5-20 µM
Hep 3B2 [6] = test: Induction of cell cycle arrest in human Hep3B cells assessed as accumulation at G0/G1 phase at 10 uM incubated for 48 hrs by flow cytometry analysis (reference value: 60.85 %); type: functional
Hep 3B2 [7] = test: Induction of apoptosis in human Hep3B cells assessed as upregulation of cleaved caspase-3 expression at 5 to 20 uM measured after 48 hrs by Western blot analysis; type: functional, cell-based; details: dose 5-20 µM
[8] = molecular target: T1, 14-3-3 protein eta (Homo sapiens); test: Inhibition of 14-3-3 eta in human Hep3B cells assessed as reduction in AKT phosphorylation at S473 residue measured after 24 hrs by western blot analysis; type: cell-based; details: dose 0.5-5 µM, DDE = dose-dependent effect
[9] = Metabolic stability in human liver microsomes assessed as half life; type: ADME, Microsome
Hep 3B2 [10] = test: Induction of apoptosis in human Hep3B cells assessed as necrotic cells at 2.5 uM measured after 48 hrs by Annexin V/FITC-PI staining based flow cytometry assay (reference value: 0.12%); type: functional
Hep 3B2 [11] = test: Induction of cell cycle arrest in human Hep3B cells assessed as accumulation at G2/M phase at 2.5 uM incubated for 48 hrs by flow cytometry analysis (reference value: 8.59 %); type: functional
Hep 3B2 [12] = test: Induction of apoptosis in human Hep3B cells assessed as viable cells at 5 uM measured after 48 hrs by Annexin V/FITC-PI staining based flow cytometry assay (reference value: 90.09%); type: functional; details: read-out: Activity
[13] = Metabolic stability in human liver microsomes assessed as intrinsic clearance; type: ADME, Microsome; details: read-out: CLH
hERG [14] = test: Selectivity ratio of IC50 for inhibition of hERG by automated patch clamp analysis to IC50 for antiproliferative activity against human SMMC-7721 cells assessed as reduction in cell viability incubated for 72 hrs by MTT assay; type: toxicity, cell-based; details: read-out: Ratio IC50
Hep 3B2 [15] = test: Induction of apoptosis in human Hep3B cells assessed as necrotic cells at 5 uM measured after 48 hrs by Annexin V/FITC-PI staining based flow cytometry assay (reference value: 0.12%); type: functional
Hep 3B2 [16] = test: Induction of apoptosis in human Hep3B cells assessed as late apoptotic cells at 2.5 uM measured after 48 hrs by Annexin V/FITC-PI staining based flow cytometry assay (reference value: 3.14%); type: functional
Hep 3B2 [17] = test: Induction of cell cycle arrest in human Hep3B cells assessed as accumulation at S phase at 1 uM incubated for 48 hrs by flow cytometry analysis (reference value: 30.56 %); type: functional
Hep 3B2 [18] = test: Induction of apoptosis in human Hep3B cells assessed as necrotic cells at 1 uM measured after 48 hrs by Annexin V/FITC-PI staining based flow cytometry assay (reference value: 0.12%); type: functional
Hep 3B2 [19] = test: Induction of apoptosis in human Hep3B cells assessed as early apoptotic cells at 1 uM measured after 48 hrs by Annexin V/FITC-PI staining based flow cytometry assay (reference value: 6.65%); type: functional
Hep 3B2 [20] = test: Antiproliferative activity against human Hep3B cells assessed as reduction in cell viability incubated for 72 hrs by MTT assay; type: functional, cell-based
Hep 3B2 [21] = test: Induction of cell cycle arrest in human Hep3B cells assessed as accumulation at S phase at 5 uM incubated for 48 hrs by flow cytometry analysis (reference value: 30.56 %); type: functional
Hep 3B2 [22] = test: Downregulation of AKT expression in human Hep3B cells measured after 24 hrs by western blot analysis; type: functional, cell-based; details: dose 0.5-5 µM, DDE = dose-dependent effect
SNU-387 = test: Antiproliferative activity against human SNU-387 cells assessed as reduction in cell viability incubated for 72 hrs by MTT assay; type: functional, cell-based; details: SNU-387, 72 h
[23] = molecular target: Voltage-gated inwardly rectifying potassium channel KCNH2 (Homo sapiens, UniProt Q12809); test: Inhibition of hERG by automated patch clamp analysis; type: toxicity
[24] = Metabolic stability in rat liver microsomes assessed as intrinsic clearance; type: ADME, Microsome; details: read-out: CLH
hERG [25] = test: Selectivity ratio of IC50 for inhibition of hERG by automated patch clamp analysis to IC50 for antiproliferative activity against human Hep3B cells assessed as reduction in cell viability incubated for 72 hrs by MTT assay; type: toxicity, cell-based; details: read-out: Ratio IC50
Hep 3B2 [26] = test: Induction of apoptosis in human Hep3B cells assessed as upregulation of cleaved caspase-8 expression measured after 48 hrs by Western blot analysis; type: functional, cell-based; details: dose 5-20 µM, DDE = dose-dependent effect
Bel7402/5-FU = test: Antiproliferative activity against human BEL-7402/5-FU cells overexpressing 14-3-3 eta assessed as reduction in cell viability incubated for 72 hrs by MTT assay; type: functional, cell-based
Hep 3B2 [27] = test: Induction of cell cycle arrest in human Hep3B cells assessed as accumulation at G0/G1 phase at 5 uM incubated for 48 hrs by flow cytometry analysis (reference value: 60.85 %); type: functional
Hep 3B2 [28] = test: Induction of apoptosis in human Hep3B cells assessed as late apoptotic cells at 10 uM measured after 48 hrs by Annexin V/FITC-PI staining based flow cytometry assay (reference value: 3.14%); type: functional
hERG [29] = test: Selectivity ratio of IC50 for inhibition of hERG by automated patch clamp analysis to IC50 for antiproliferative activity against human BEL-7402/5-FU cells assessed as reduction in cell viability incubated for 72 hrs by MTT assay; type: toxicity, cell-based; details: read-out: Ratio IC50
Hep 3B2 [30] = test: Induction of cell cycle arrest in human Hep3B cells assessed as accumulation at G2/M phase at 10 uM incubated for 48 hrs by flow cytometry analysis (reference value: 8.59 %); type: functional

Sequence of Voltage-gated inwardly rectifying potassium channel KCNH2 (Q12809 whole entry): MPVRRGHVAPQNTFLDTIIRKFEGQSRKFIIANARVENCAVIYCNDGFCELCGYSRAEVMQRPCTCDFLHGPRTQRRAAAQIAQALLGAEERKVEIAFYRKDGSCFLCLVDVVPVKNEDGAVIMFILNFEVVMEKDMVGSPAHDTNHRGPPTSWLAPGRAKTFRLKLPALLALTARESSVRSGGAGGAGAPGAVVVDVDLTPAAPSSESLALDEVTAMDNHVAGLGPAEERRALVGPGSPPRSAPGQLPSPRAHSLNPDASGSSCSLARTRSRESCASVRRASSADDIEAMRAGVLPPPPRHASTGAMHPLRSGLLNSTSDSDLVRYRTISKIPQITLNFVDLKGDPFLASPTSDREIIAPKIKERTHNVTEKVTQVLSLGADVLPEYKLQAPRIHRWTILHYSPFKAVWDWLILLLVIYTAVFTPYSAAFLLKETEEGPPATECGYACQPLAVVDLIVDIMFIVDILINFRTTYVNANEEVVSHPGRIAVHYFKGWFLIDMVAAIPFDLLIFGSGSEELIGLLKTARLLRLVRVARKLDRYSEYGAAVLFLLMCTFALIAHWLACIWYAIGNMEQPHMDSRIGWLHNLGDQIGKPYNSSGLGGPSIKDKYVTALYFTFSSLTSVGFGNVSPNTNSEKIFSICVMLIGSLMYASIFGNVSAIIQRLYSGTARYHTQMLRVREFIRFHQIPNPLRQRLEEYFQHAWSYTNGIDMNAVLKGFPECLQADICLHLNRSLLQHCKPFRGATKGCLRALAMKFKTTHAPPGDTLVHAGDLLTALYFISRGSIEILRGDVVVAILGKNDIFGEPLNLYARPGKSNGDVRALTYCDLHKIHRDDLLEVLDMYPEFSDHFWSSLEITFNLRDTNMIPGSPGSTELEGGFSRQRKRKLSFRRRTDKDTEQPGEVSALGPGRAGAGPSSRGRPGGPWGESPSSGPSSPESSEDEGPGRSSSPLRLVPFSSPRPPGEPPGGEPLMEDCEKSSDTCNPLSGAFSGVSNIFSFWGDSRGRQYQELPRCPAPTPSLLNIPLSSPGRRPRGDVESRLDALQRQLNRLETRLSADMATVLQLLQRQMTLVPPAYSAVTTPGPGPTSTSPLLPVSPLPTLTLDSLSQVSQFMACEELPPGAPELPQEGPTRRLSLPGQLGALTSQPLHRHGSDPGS

IC50 (Bel-7402): 5.92 µM
inhibition [4]: Dde
inhibition [8]: Dde
half-life [9]: 7.31 min
CLint scaled [13]: 238 mL/min/kg
IC50 (SNU-387): 5.47 µM
CLint scaled [24]: 269 mL/min/kg
IC50 (Bel7402/5-FU): 4.55 µM
Compound: COc1cccc(CNCc2c(C(=O)O)n(Cc3ccc(C)cc3)c3cc(C(C)C)ccc23)c1
viability at 2.5 µM (Hep 3B2 [1]): 86%
selectivity ratio at 72 h (hERG [2]): 10.1
Activity (Hep 3B2 [3]): 7.79%
Activity (Hep 3B2 [5]): Active
Activity (Hep 3B2 [6]): 67.7%
Activity (Hep 3B2 [7]): Active
Activity (Hep 3B2 [10]): 0.27%
Activity (Hep 3B2 [11]): 4.47%
viability at 5 µM (Hep 3B2 [12]): 79.9%
selectivity ratio at 72 h (hERG [14]): 11.8
Activity (Hep 3B2 [15]): 1.07%
Activity (Hep 3B2 [16]): 5.02%
Activity (Hep 3B2 [17]): 35.59%
Activity (Hep 3B2 [18]): 0.38%
Activity (Hep 3B2 [19]): 6.8%
IC50 (Hep 3B2 [20]): 4.07 µM
Activity (Hep 3B2 [21]): 37.73%
inhibition (Hep 3B2 [22]): Dde
IC50 [23]: 34.6 µM
selectivity ratio at 72 h (hERG [25]): 8.5
Activity (Hep 3B2 [26]): Dde
Activity (Hep 3B2 [27]): 58.48%
Activity (Hep 3B2 [28]): 13.52%
selectivity ratio at 72 h (hERG [29]): 5.84
Activity (Hep 3B2 [30]): 2.59%
